One test deals with A431 (ATCC: CRL-1555). In words: Test of cancer cell growth inhibition (SRB), A431. As to conditions: read-out: IC50 A431.
The next test deals with SK-Br3 (ATCC: HTB-30). In words: Test of cancer cell growth inhibition (SRB), SK-Br3. As to conditions: Homo sapiens, SK-BR-3, 72 h, read-out: IC50 SK-Br-3.
[1] abbreviates: EGFR overexpressed A431, 72 hours, SRB.

The results in this text go back to patent publication US8003658B2, “Quinazoline derivatives for inhibiting cancer cell growth and method for the preparation thereof” (Hanmi Holdings Co., Ltd., priority 2004, dated 2011).

Structures are written as SMILES. Read-outs that look alike come from different tables or passages of the source.

With `C=CC(=O)N1CCC1C(=O)Nc1cc2c(Nc3ccc(OCc4ccccn4)c(Cl)c3)ncnc2cc1OCC` (centres unmarked) [Example 199, 1-acryloyl-azetidine-2-carboxylic acid {4-[3-chloro-4-(pyridin-2-ylmethoxy)-phenylamino]-7-ethoxy-quinazolin-6-yl}-amide], the half-maximal inhibitory concentration (IC50) was 145 nM in the test on A431 (ATCC: CRL-1555) (Homo sapiens, A-431, 72 h) and 96 nM in the test with SK-Br3 (ATCC: HTB-30).

Turning to `C=CC(=O)N1CCC[C@H]1C(=O)Nc1cc2c(Nc3ccc(OCc4ccccn4)c(Cl)c3)ncnc2cc1F` [Example 165, (2S)-1-acryloyl-pyrrolidine-2-carboxylic acid {4-[3-chloro-4-(pyridin-2-ylmethoxy)-phenylamino]-7-fluoro-quinazolin-6-yl}-amide], the 50% inhibitory concentration (IC50) in the test with A431 (ATCC: CRL-1555) (Homo sapiens, A-431, 72 h) was 215 nM; in the test with SK-Br3 (ATCC: HTB-30) it was 5 nM.

With `C=CC(=O)N1CCC[C@H]1C(=O)Nc1cc2c(Nc3ccc(OCc4ccccn4)c(Cl)c3)ncnc2cc1OC1CCCC1` [Example 173, (2S)-1-acryloyl-pyrrolidine-2-carboxylic acid {4-[3-chloro-4-(pyridin-2-ylmethoxy)-phenylamino]-7-cyclopentyloxy-quinazolin-6-yl}-amide], the IC50 in the test with A431 (ATCC: CRL-1555) (Homo sapiens, A-431, 72 h) stood at 552 nM; in the test on SK-Br3 (ATCC: HTB-30), 29 nM.

For `C[S+]([O-])CC(=O)NCCC(=O)Nc1ccc2ncnc(Nc3ccc(OCc4cccc(F)c4)c(Cl)c3)c2c1` (centres unmarked) [Example 118, N-{4-[3-chloro-4-(3-fluoro-benzyloxy)-phenylamino]-quinazolin-6-yl}-3-(2-methanesulfinyl-acetylamino)-propionamide], the IC50 is 735 nM in the test on A431 (ATCC: CRL-1555) (Homo sapiens, A-431, 72 h) and 161 nM with SK-Br3 (ATCC: HTB-30).

As to `O=C(CCCNC(=O)c1ccoc1)Nc1ccc2ncnc(Nc3ccc(OCc4cccc(F)c4)c(Cl)c3)c2c1` [Example 94, furan-3-carboxylic acid (3-{4-[3-chloro-4-(3-fluoro-benzyloxy)-phenylamino]-quinazolin-6-ylcarbamoyl}-propyl)-amide], the IC50 with A431 (ATCC: CRL-1555) (Homo sapiens, A-431, 72 h) amounted to 245 nM; in the test with SK-Br3 (ATCC: HTB-30), 70 nM.

In the case of `C=CC(=O)N1C[C@H](N(C)C)C[C@H]1C(=O)Nc1ccc2ncnc(Nc3ccc(OCc4ccccn4)c(Cl)c3)c2c1` [Example 151, (2S,4R)-1-acryloyl-4-dimethylamino-pyrrolidine-2-carboxylic acid {4-[3-chloro-4-(pyridin-2-ylmethoxy)-phenylamino]-quinazolin-6-yl}-amide], the half-inhibitory concentration (IC50) stood at 105 nM in the test with A431 (ATCC: CRL-1555) (Homo sapiens, A-431, 72 h) and 3 nM in the test on SK-Br3 (ATCC: HTB-30).

Take `C=CC(=O)N1CCC(C(=O)Nc2ccc3ncnc(Nc4ccc(OCc5ccccn5)c(Cl)c4)c3c2)C1` (centres unmarked) [Example 155, 1-acryloyl-pyrrolidine-3-carboxylic acid {4-[3-chloro-4-(pyridin-2-ylmethoxy)-phenylamino]-quinazolin-6-yl}-amide]: the half-inhibitory concentration (IC50) in the test with A431 (ATCC: CRL-1555) (setting [1]) amounted to 350 nM; with SK-Br3 (ATCC: HTB-30), 12 nM.

With `CS(=O)(=O)CC(=O)NCCCC(=O)Nc1ccc2ncnc(Nc3ccc(OCc4cccc(F)c4)c(Cl)c3)c2c1` [Example 88, N-{4-[3-chloro-4-(3-fluoro-benzyloxy)-phenylamino]-quinazolin-6-yl}-4-(2-methanesulfonyl-acetylamino)-butyramide], the IC50 with A431 (ATCC: CRL-1555) (Homo sapiens, A-431, 72 h) is 732 nM; with SK-Br3 (ATCC: HTB-30), 62 nM.

Regarding `COC(=O)NCCC(=O)Nc1ccc2ncnc(Nc3ccc(OCc4cccc(F)c4)c(Cl)c3)c2c1` [Example 126, (2-{4-[3-chloro-4-(3-fluoro-benzyloxy)-phenylamino]-quinazolin-6-ylcarbamoyl}-ethyl)-carbamic acid methylester], the half-inhibitory concentration (IC50) in the test on A431 (ATCC: CRL-1555) (Homo sapiens, A-431, 72 h) was found to be 99 nM; with SK-Br3 (ATCC: HTB-30) it was 91 nM.

Consider `CS(=O)(=O)CC(=O)N1CCCC1C(=O)Nc1ccc2ncnc(Nc3ccc(OCc4cccc(F)c4)c(Cl)c3)c2c1` (centres unmarked) [Example 17, 1-(2-methanesulfonyl-acetyl)-pyrrolidine-2-carboxylic acid {4-[3-chloro-4-(3-fluoro-benzyloxy)-phenylamino]-quinazolin-6-yl}-amide], for which the concentration for half-maximal inhibition (IC50) is 713 nM in the test with A431 (ATCC: CRL-1555) (Homo sapiens, A-431, 72 h) and 182 nM in the test on SK-Br3 (ATCC: HTB-30).

As to `C=CC(=O)N1CCC[C@H]1C(=O)Nc1cc2c(Nc3ccc4c(cnn4Cc4ccccn4)c3)ncnc2cc1OC` [Example 185, (2S)-1-acryloyl-pyrrolidine-2-carboxylic acid [7-methoxy-4-(1-pyridin-2-ylmethyl-1H-indazol-5-ylamino)-quinazolin-6-yl]-amide], the concentration for half-maximal inhibition (IC50) in the test on A431 (ATCC: CRL-1555) (Homo sapiens, A-431, 72 h) worked out at 22 nM; in the test with SK-Br3 (ATCC: HTB-30), 3 nM.

As for `O=C(C=Cc1ccccc1)NCCC(=O)Nc1ccc2ncnc(Nc3ccc(OCc4cccc(F)c4)c(Cl)c3)c2c1` [Example 26, N-(2-{4-[3-chloro-4-(3-fluoro-benzyloxy)-phenylamino]-quinazolin-6-ylcarbamoyl}-ethyl)-3-phenyl-acrylamide], the 50% inhibitory concentration (IC50) with A431 (ATCC: CRL-1555) (Homo sapiens, A-431, 72 h) was 801 nM; in the test on SK-Br3 (ATCC: HTB-30) it was 872 nM.

Take `CCOC(=O)C(=O)NCCCC(=O)Nc1ccc2ncnc(Nc3ccc(OCc4cccc(F)c4)c(Cl)c3)c2c1` [Example 91, N-(3-{4-[3-chloro-4-(3-fluoro-benzyloxy)-phenylamino]-quinazolin-6-ylcarbamoyl}-propyl)-oxalamic acid ethylester]: the IC50 in the test with A431 (ATCC: CRL-1555) (Homo sapiens, A-431, 72 h) turned out to be 603 nM; in the test on SK-Br3 (ATCC: HTB-30), 445 nM.

In the case of `Cc1ccc(Oc2ccc(Nc3ncnc4ccc(NC(=O)CCNC(=O)CS(C)(=O)=O)cc34)cc2C)cn1` [Example 50-2, 3-(2-methanesulfonyl-acetylamino)-N-{4-[3-methyl-4-(6-methyl-pyridin-3-yloxy)-phenylamino]-quinazolin-6-yl}-propionamide], the IC50 in the test with A431 (ATCC: CRL-1555) (Homo sapiens, A-431, 72 h) turned out to be 845 nM; with SK-Br3 (ATCC: HTB-30) it was 99 nM.

Regarding `C=CC(=O)N1CCC[C@H]1C(=O)Nc1cc2c(Nc3ccc(OCCF)c(Cl)c3)ncnc2cc1OC` [Example 203, (2S)-1-acryloyl-pyrrolidine-2-carboxylic acid {4-[3-chloro-4-(2-fluoro-ethoxy)-phenylamino]-7-methoxy-quinazolin-6-yl}-amide], the half-inhibitory concentration (IC50) in the test on A431 (ATCC: CRL-1555) (Homo sapiens, A-431, 72 h) amounted to 269 nM; in the test with SK-Br3 (ATCC: HTB-30) it was 34 nM.

In the case of `COCCNCC(=O)NCCCC(=O)Nc1ccc2ncnc(Nc3ccc(OCc4cccc(F)c4)c(Cl)c3)c2c1` [Example 106, N-{4-[3-chloro-4-(3-fluoro-benzyloxy)-phenylamino]-quinazolin-6-yl}-4-[2-(2-methoxy-ethylamino)-acetylamino]-butyramide], the IC50 in the test with A431 (ATCC: CRL-1555) (Homo sapiens, A-431, 72 h) stood at 359 nM; in the test on SK-Br3 (ATCC: HTB-30), 48 nM.

For `CC(C)(C)OC(=O)NCCCCC(=O)Nc1ccc2ncnc(Nc3ccc(OCc4cccc(F)c4)c(Cl)c3)c2c1` [Example 114, (4-{4-[3-chloro-4-(3-fluoro-benzyloxy)-phenylamino]-quinazolin-6-ylcarbamoyl}-butyl)-carbamic acid t-butylester], the IC50 in the test on A431 (ATCC: CRL-1555) (Homo sapiens, A-431, 72 h) came out at 136 nM; in the test on SK-Br3 (ATCC: HTB-30), 216 nM.

As to `C=CC(=O)N1CCC(C(=O)Nc2ccc3ncnc(Nc4ccc(OCc5ccccn5)c(Cl)c4)c3c2)CC1` [Example 156, 1-acryloyl-piperidine-4-carboxylic acid {4-[3-chloro-4-(pyridin-2-ylmethoxy)-phenylamino]-quinazolin-6-yl}-amide], the half-maximal inhibitory concentration (IC50) in the test on A431 (ATCC: CRL-1555) (setting [1]) worked out at 513 nM; in the test on SK-Br3 (ATCC: HTB-30), 19 nM.

`C=CC(=O)NCCC(=O)N(CCCN(C)C)c1ccc2ncnc(Nc3ccc(OCc4cccc(F)c4)c(Cl)c3)c2c1` [Example 141-4, N-{2-[{4-[3-chloro-4-(3-fluoro-benzyloxy)-phenylamino]-quinazolin-6-yl}-(3-dimethylamino-propyl)-carbamoyl]-ethyl}-acrylamide]: the IC50 was determined as 1330 nM with A431 (ATCC: CRL-1555) (Homo sapiens, A-431, 72 h) and 804 nM in the test on SK-Br3 (ATCC: HTB-30).

As a reminder, the IC50 is the midpoint of a concentration-inhibition curve.
